ChEMBL document CHEMBL4219087, “Investigation of multi-target-directed ligands (MTDLs) with butyrylcholinesterase (BuChE) and indoleamine 2,3-dioxygenase 1 (IDO1) inhibition: The design, synthesis of miconazole analogues targeting Alzheimer's disease” (Bioorg Med Chem, 2018)

Columns and labels:
[1] = Selectivity index, ratio of IC50 for electric eel AChE to IC50 for equine serum BChE
Acetylcholinesterase = Acetylcholinesterase (Electrophorus electricus, UniProt O42275); assay: Inhibition of electric eel AChE using acetylthiocholine iodide as substrate preincubated for 5 mins followed by substrate addition measured after 2 mins by modified Ellman assay
Mus musculus [2] = assay: Reversal of scopolamine-induced cognitive function impairment in ICR mouse assessed as escape latency time at 15 mg/kg, po dosed 30 mins prior to scopolamine treatment by Morris water maze test (reference value: 40.5 sec); type: functional
Mus musculus [3] = assay: Hepatotoxicity in ICR mouse assessed as serum AST level at 15 mg/kg, ig after 8 hrs; type: toxicity, organism-based; details: in vivo, po
Mus musculus [4] = assay: Hepatotoxicity in ICR mouse assessed as serum ALT level at 15 mg/kg, ig after 36 hrs; type: toxicity, organism-based; details: in vivo, po
Mus musculus [5] = assay: Hepatotoxicity in ICR mouse assessed as serum ALT level at 15 mg/kg, ig after 8 hrs; type: toxicity, organism-based; details: in vivo, po
[6] = target: Indoleamine 2,3-dioxygenase 1 (Homo sapiens, UniProt P14902); assay: Inhibition of human recombinant IDO1 using L-tryptophan as substrate after 30 mins by fluorimetric analysis
Mus musculus [7] = assay: Hepatotoxicity in ICR mouse assessed as serum ALT level at 15 mg/kg, ig after 22 hrs; type: toxicity, organism-based; details: in vivo, po
Mus musculus [8] = assay: Hepatotoxicity in ICR mouse assessed as serum AST level at 15 mg/kg, ig after 36 hrs; type: toxicity, organism-based; details: in vivo, po
Mus musculus [9] = assay: Hepatotoxicity in ICR mouse assessed as fatty degeneration of hepatocytes surrounding intermediate and periportal zones at 15 mg/kg, ig after 30 hrs by hematoxylin and eosin staining-based assay; type: toxicity, organism-based; details: in vivo, po
Mus musculus [10] = assay: Hepatotoxicity in ICR mouse assessed as pericentral necrosis of hepatocytes surrounding intermediate and periportal zones at 15 mg/kg, ig after 30 hrs by hematoxylin and eosin staining-based assay; type: toxicity, organism-based; details: in vivo, po
Mus musculus [11] = assay: Hepatotoxicity in ICR mouse assessed as serum AST level at 15 mg/kg, ig after 22 hrs; type: toxicity, organism-based; details: in vivo, po
Cholinesterase = Cholinesterase (Equus caballus, UniProt P81908); assay: Inhibition of equine serum BChE using butyrylthiocholine iodide as substrate preincubated for 5 mins followed by substrate addition measured after 2 mins by modified Ellman assay
Chain of Cholinesterase (P81908 whole entry): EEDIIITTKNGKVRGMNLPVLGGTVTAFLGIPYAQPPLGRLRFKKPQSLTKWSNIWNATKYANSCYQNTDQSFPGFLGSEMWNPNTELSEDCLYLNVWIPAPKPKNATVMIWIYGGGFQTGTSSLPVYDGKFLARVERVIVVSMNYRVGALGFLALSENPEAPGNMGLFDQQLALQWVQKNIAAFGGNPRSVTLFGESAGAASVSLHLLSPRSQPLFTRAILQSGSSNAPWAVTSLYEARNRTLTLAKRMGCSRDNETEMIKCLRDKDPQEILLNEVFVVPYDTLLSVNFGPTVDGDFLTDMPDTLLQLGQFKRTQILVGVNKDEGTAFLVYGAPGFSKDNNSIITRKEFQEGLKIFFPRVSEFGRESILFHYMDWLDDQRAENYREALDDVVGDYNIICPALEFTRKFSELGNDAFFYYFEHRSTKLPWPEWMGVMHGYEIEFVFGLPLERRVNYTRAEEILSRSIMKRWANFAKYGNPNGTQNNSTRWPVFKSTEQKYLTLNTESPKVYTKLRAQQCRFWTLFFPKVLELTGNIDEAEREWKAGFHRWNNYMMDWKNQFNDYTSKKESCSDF

Chain of Acetylcholinesterase (O42275 whole entry): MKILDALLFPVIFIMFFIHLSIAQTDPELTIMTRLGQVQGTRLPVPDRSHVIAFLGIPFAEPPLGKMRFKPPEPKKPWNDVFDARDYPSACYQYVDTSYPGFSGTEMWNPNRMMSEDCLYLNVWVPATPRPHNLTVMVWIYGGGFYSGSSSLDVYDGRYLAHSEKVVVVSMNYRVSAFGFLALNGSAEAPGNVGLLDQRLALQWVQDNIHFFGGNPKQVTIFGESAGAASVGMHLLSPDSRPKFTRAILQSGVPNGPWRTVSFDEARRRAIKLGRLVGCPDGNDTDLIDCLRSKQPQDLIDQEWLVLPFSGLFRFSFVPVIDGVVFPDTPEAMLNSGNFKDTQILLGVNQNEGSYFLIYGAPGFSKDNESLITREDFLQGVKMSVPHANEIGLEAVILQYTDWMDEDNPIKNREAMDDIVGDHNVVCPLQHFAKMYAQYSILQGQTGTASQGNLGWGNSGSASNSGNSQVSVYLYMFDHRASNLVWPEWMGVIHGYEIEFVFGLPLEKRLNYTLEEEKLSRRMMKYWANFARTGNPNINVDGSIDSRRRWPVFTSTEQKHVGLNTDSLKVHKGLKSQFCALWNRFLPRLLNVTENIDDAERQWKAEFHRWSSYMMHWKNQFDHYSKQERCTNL
Chain of Indoleamine 2,3-dioxygenase 1 (P14902 whole entry): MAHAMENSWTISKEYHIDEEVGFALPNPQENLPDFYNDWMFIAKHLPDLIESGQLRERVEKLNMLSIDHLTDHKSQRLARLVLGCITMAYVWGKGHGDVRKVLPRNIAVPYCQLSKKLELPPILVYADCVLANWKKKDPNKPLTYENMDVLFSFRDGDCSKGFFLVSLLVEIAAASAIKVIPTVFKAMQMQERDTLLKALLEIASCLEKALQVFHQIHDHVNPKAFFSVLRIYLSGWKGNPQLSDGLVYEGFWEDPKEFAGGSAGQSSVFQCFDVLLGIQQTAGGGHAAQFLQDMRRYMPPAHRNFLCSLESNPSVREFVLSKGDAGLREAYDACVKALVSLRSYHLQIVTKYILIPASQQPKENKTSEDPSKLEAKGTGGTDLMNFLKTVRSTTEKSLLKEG

| SMILES | Ratio IC50 [1] | IC50 (Acetylcholinesterase) [µM] | Time (Mus musculus [2]) [s] | Activity (Mus musculus [3]) | Activity (Mus musculus [4]) | Activity (Mus musculus [5]) | IC50 [6] [µM] | Activity (Mus musculus [7]) | Activity (Mus musculus [8]) | Activity (Mus musculus [9]) | Activity (Mus musculus [10]) | Activity (Mus musculus [11]) | IC50 (Cholinesterase) [µM] |
| --- | --- | --- | --- | --- | --- | --- | --- | --- | --- | --- | --- | --- | --- |
| COc1ccc(COC(Cn2ccnc2)c2ccc(Cl)cc2Cl)cc1 (centres undefined) | 4.4 | 73.1 | 13.4 | Non-Toxic | Non-Toxic | Non-Toxic | 1 | Non-Toxic | Non-Toxic | Non-Toxic | Non-Toxic | Non-Toxic | 16.5 |
| Cc1ccccc1COC(Cn1ccnc1)c1ccc(Cl)cc1Cl (centres undefined) | 2 | 37.5 |  |  |  |  | 2.2 |  |  |  |  |  | 18.4 |
| Fc1ccc(COC(Cn2ccnc2)c2ccc(Cl)cc2Cl)cc1 (centres undefined) | 2.3 | 33 |  |  |  |  | 4 |  |  |  |  |  | 14.8 |
| Cc1ccc(COC(Cn2ccnc2)c2ccc(Cl)cc2Cl)cc1 (centres undefined) | 2.5 | 26.9 |  |  |  |  | 2 |  |  |  |  |  | 10.9 |
| Nc1c2c(nc3ccccc13)CCCC2 [TACRINE] |  |  | 25.9 |  |  |  |  |  |  |  |  |  |  |
| Fc1cccc(F)c1COC(Cn1ccnc1)c1ccc(Cl)cc1Cl (centres undefined) | 9.2 | 176 |  |  |  |  | 4.2 |  |  |  |  |  | 19.2 |
| CC(C)(C)c1ccc(COC(Cn2ccnc2)c2ccc(Cl)cc2Cl)cc1 (centres undefined) | 0.5 | 24.3 |  |  |  |  | 4.4 |  |  |  |  |  | 46.3 |
| Cc1cccc(COC(Cn2ccnc2)c2ccc(Cl)cc2Cl)c1 (centres undefined) | 2.1 | 30.7 |  |  |  |  | 1.2 |  |  |  |  |  | 14.6 |
| COc1cccc(COC(Cn2ccnc2)c2ccc(Cl)cc2Cl)c1 (centres undefined) | 9.9 | 81.3 | 19.7 | Non-Toxic | Non-Toxic | Non-Toxic | 2.8 | Non-Toxic | Non-Toxic | Non-Toxic | Non-Toxic | Non-Toxic | 8.3 |
| Clc1ccc(C(Cn2ccnc2)OCc2ccc(Br)cc2)c(Cl)c1 (centres undefined) | 1.5 | 19.5 |  |  |  |  | 5.7 |  |  |  |  |  | 13.1 |
| Cc1ccc(COC(Cn2ccnc2)c2ccc(Cl)cc2Cl)cc1C (centres undefined) | 1.6 | 17.3 |  |  |  |  | 2.2 |  |  |  |  |  | 11.2 |
